We go through 1 compound from paper PMC11365428 (The Journal of Biological Chemistry, 2024).

Non-standard residues stand in square brackets, D forms with d. Residues, ends and D or L forms follow the SMILES beside them. pGlu = O=C1CC[C@@H](C(=O)O)N1

Assay [1] deals with T1, apTKRPR-B (Aplysia californica, UniProt A0AAU7STS1).
T1 sequence (A0AAU7STS1 1-447): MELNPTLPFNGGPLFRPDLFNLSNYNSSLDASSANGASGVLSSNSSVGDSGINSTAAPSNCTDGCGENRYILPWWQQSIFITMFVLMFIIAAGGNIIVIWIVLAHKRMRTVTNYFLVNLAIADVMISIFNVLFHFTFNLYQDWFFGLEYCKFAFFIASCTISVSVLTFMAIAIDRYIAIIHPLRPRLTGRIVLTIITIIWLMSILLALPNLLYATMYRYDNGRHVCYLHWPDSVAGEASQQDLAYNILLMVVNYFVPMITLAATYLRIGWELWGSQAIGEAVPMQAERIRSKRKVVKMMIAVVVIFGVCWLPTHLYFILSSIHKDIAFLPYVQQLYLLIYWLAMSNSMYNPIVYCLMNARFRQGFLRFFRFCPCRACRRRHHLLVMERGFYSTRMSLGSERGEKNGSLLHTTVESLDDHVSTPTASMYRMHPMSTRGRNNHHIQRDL
Briefly: IP1 accumulation assay, CHO-K1 cells transiently expressing apTKRPR-B. It is filed as cell-based. How it is done: To express putative Aplysia receptors transiently in CHO-K1 cells, the cDNAs were subcloned into the pcDNA3.1(+) or pcDNA3.1(+)-FLAG (for ELISA experiments only, see “Cell surface expression analysis by ELISA” section) expression vector. On the day before transfection, the CHO-K1 cells were passaged into 60 mm diameter tissue culture–treated dishes, and the transfection experiments were performed when the cells were grown to 70 to 90% confluence. CHO-K1 cells were transfected with the cDNA plasmid constructs using Turbofect Transfection reagent (Thermo Fisher Scientific, R0531), following the manufacturer’s instructions. […] The DNA/TurboFect mixture dropwise was then added to the dish, and the cells were incubated at 37 °C in a humidified incubator containing 5% CO2 overnight.
(§1) On the third day, the activation of the putative receptors was detected by monitoring intracellular IP1 concentration using an IP-One Gq kit (Cisbio, 62IPAPEB) in Tecan Spark. Except for using 0.5x reagent, all other procedures were performed following the manufacturer’s instructions. IP1 accumulation assay measures the accumulation of IP1, which is hydrolyzed from the second messenger, and inositol triphosphate. Inositol triphosphate is generated by the Gαq pathway when a GPCR is activated by an appropriate ligand.

Assay [2] concerns putative neuropeptide FF receptor (apNPFFR). In words: IP1 accumulation assay, CHO-K1 cells transiently expressing putative neuropeptide FF receptor. The conditions noted are these: 10^-5 M compared with 10^-10 M (control); n = 3; no Gαq cotransfection. It is filed as cell-based, Aplysia californica. How it is done:
To express putative Aplysia receptors transiently in CHO-K1 cells, the cDNAs were subcloned into the pcDNA3.1(+) or pcDNA3.1(+)-FLAG (for ELISA experiments only, see “Cell surface expression analysis by ELISA” section) expression vector. On the day before transfection, the CHO-K1 cells were passaged into 60 mm diameter tissue culture–treated dishes, and the transfection experiments were performed when the cells were grown to 70 to 90% confluence. CHO-K1 cells were transfected with the cDNA plasmid constructs using Turbofect Transfection reagent (Thermo Fisher Scientific, R0531), following the manufacturer’s instructions. In brief, 4 μg of the putative receptor plasmids [in pcDNA3.1(+) or pcDNA3.1(+)-FLAG] were mixed with 400 μl of Opti-MEM (Gibco, 11058021), followed by the addition of 15 μl of TurboFect Transfection reagent and incubated at room temperature for 15 min. The DNA/TurboFect mixture dropwise was then added to the dish, and the cells were incubated at 37 °C in a humidified incubator containing 5% CO2 overnight.
as §1, with “The next day, transfected cells were trypsinized and reseeded in an opaque white 96-well half-area (Corning, 3688) or 384-well tissue culture–treated plates (Corning, 3570) at a density of 20,000 cells/well in F-12K and 10% FBS and incubated at 37 °C in a humidified incubator containing 5% CO2 overnight. On the” for “On the”

The target of another assay is apTKRPR-A T376 (Aplysia californica, UniProt A0AAU7SSZ1, DEL377-398). Briefly: IP1 accumulation assay, C-terminal truncate apTKRPR-A T376. It counts as cell-based. The method, then:
(§2) To express putative Aplysia receptors transiently in CHO-K1 cells, the cDNAs were subcloned into the pcDNA3.1(+) or pcDNA3.1(+)-FLAG (for ELISA experiments only, see “Cell surface expression analysis by ELISA” section) expression vector. On the day before transfection, the CHO-K1 cells were passaged into 60 mm diameter tissue culture–treated dishes, and the transfection experiments were performed when the cells were grown to 70 to 90% confluence. CHO-K1 cells were transfected with the cDNA plasmid constructs using Turbofect Transfection reagent (Thermo Fisher Scientific, R0531), following the manufacturer’s instructions. In brief, 4 μg of the putative receptor plasmids [in pcDNA3.1(+) or pcDNA3.1(+)-FLAG] were mixed with 400 μl of Opti-MEM (Gibco, 11058021), followed by the addition of 15 μl of TurboFect Transfection reagent and incubated at room temperature for 15 min. […]
(§3) The next day, transfected cells were trypsinized and reseeded in an opaque white 96-well half-area (Corning, 3688) or 384-well tissue culture–treated plates (Corning, 3570) at a density of 20,000 cells/well in F-12K and 10% FBS and incubated at 37 °C in a humidified incubator containing 5% CO2 overnight. On the third day, the activation of the putative receptors was detected by monitoring intracellular IP1 concentration using an IP-One Gq kit (Cisbio, 62IPAPEB) in Tecan Spark. […]

The next assay addresses apTKRPR-B T391 (Aplysia californica, UniProt A0AAU7STS1, DEL392-447). In words: IP1 accumulation assay, C-terminal truncate apTKRPR-B T391. It counts as cell-based. The method, then:
as §2, §3

The target of a further assay is apTKRPR-B 14A (Aplysia californica, UniProt A0AAU7STS1, S392A/S396A/S399A/S407A/S415A/S421A/S426A/S434A/T393A/T411A/T412A/T422A/T424A/T435A). In words: IP1 accumulation assay, Ser/Thr-to-Ala mutant apTKRPR-B 14A. It is filed as cell-based. How it is done:
as §2, §3

In assay [3] the target is T1, apTKRPR-B. Briefly: Receptor desensitization assay, protocol 1 (prolonged agonist exposure), apTKRPR-B. The following applies: 10 μM, 2, 5, 10, 15, 30 and 60 min at 37 °C; fold increase over basal; n = 3. It is filed as cell-based. The method, then:
Therefore, we adopted two protocols to study the desensitization of apTKRPRs. The protocols were performed using a procedure modified from previous work ([87], [88], [89]).
Protocol 1 ([87], [88]): Under continuous (prolonged) stimulation with an agonist, we examined agonist-induced desensitization by quantifying the rate of IP1 accumulation. Specifically, CHO-K1 cells transiently expressing pcDNA3.1-apTKRPRs were incubated in the absence or presence of 10 μM (saturating concentration) apTKRP-2b for the different duration (2, 5, 10, 15, 30, and 60 min) at 37 °C, and intracellular concentrations of IP1 accumulation were measured. Data are presented as fold increase over basal IP1 concentration (Fig. S10).

Chain of apTKRPR-A T376 (A0AAU7SSZ1 entry or part of it, stated change not applied): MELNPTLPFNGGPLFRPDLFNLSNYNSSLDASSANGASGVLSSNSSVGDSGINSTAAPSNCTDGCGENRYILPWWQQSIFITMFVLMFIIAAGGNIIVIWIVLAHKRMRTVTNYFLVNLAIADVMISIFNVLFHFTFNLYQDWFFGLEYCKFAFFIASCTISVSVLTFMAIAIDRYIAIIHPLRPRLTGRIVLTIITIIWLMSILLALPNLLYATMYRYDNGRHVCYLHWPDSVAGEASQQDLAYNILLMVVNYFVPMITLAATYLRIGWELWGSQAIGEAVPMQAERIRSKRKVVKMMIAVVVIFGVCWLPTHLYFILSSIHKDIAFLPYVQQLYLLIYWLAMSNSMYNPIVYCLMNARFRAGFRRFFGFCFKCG
Chain of apTKRPR-B 14A (A0AAU7STS1 entry or part of it with the stated changes): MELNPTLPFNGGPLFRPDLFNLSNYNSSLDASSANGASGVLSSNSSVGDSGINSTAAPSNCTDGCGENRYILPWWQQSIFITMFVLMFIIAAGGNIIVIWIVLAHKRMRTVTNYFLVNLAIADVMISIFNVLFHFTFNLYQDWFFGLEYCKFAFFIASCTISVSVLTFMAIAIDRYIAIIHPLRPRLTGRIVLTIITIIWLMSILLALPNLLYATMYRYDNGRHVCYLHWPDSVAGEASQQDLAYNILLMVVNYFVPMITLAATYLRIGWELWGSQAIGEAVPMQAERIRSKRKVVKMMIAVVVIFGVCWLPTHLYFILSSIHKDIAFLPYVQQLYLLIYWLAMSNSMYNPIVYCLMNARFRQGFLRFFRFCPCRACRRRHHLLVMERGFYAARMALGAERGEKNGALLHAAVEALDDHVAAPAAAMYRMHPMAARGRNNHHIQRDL

In general, EC50 refers to the concentration that produces a half-maximal response. Read a high EC50 as a less potent agent. On to `CC(C)C[C@H](NC(=O)[C@H](Cc1c[nH]cn1)NC(=O)[C@@H]1CCCN1C(=O)[C@@H]1CCC(=O)N1)C(=O)NCC(=O)N[C@@H](Cc1ccccc1)C(=O)N[C@@H](Cc1c[nH]cn1)C(=O)NCC(=O)N[C@@H](CO)C(=O)N[C@@H](CCCNC(=N)N)C(N)=O` [apTKRP-2b] ([pGlu]PHLGFHGSR-NH2), for which the EC50 at apTKRPR-B [1] was 5.37 nM; on apTKRPR-A T376, 18.2 nM; at apTKRPR-B T391, 21.4 nM; on apTKRPR-B 14A, 24.5 nM. For the same compound, at apTKRPR-B [1] (10^-5 M compared with 10^-10 M (control), n = 3, no Gαq cotransfection), the “IP1 response of apTKRPR-B in screening” value was “responded”. Moreover, the “IP1 response of putative apNPFFR in screening” value in assay [2] was “did not respond”. Besides, the “time course of IP1 accumulation, apTKRPR-B (protocol 1)” value on apTKRPR-B [3] was “initially increased and then reached a plateau”.
